{"source": "paper PMC8395767", "about": "“Worsening of the Toxic Effects of (±)Cis-4,4′-DMAR Following Its Co-Administration with (±)Trans-4,4′-DMAR: Neuro-Behavioural, Physiological, Immunohistochemical and Metabolic Studies in Mice” (International Journal of Molecular Sciences, 2021)", "key": {"mice [1]": {"tested_on": "mice", "assay": "Convulsions (observation)", "assay_type": "in vivo", "conditions": "n=6 mice", "protocol": "(§1) The effects of (±)cis-4,4′-DMAR, (±)trans-4,4′-DMAR and their co-administration were investigated by a protocol widely used in studies of “safety pharmacology” for the preclinical characterization of new molecules in rodents. This protocol includes a series of observational behavioural tests carried out in a consecutive manner that monitor the animal responses up to 5 h after compound injections. In the present study, we reported the observation of physiological (sweating, salivation, core temperature) and neuro-behavioural (detection of psychomotor agitation, spontaneous and stimulated aggressiveness, convulsions) changes occurring in mice after injection of (±)cis-4,4′-DMAR, (±)trans-4,4′-DMAR and their co-administration. Before pharmacological treatment the mouse was placed on a square plate (30 cm× 30 cm) raised from the ground (20 cm) and left free to move on the plate for 10 min (habituation period). The animal was then injected with the vehicle, substances alone ((±)cis-4,4′-DMAR or (±)trans-4,4′-DMAR) or in cis + trans co-administration and placed on the plate. From this moment, the recording time of the physiological and neuro-behavioural responses started, and these were detected in 5-min sessions.\n(§2) After the first 5 min, the animal was removed from the plate; the body core temperature was then measured, and the aggression tests were performed. The 5-min observation period was repeated at 15–30–60–90–120–180–240–300. Psychomotor agitation in the mouse was not simply related to an increase in spontaneous locomotion itself, but by an “unusual hyperactivity” which was characterised by rapid and sudden horizontal displacements in all directions, sustained turning behaviour, involuntary falls from the high plate during the evaluation of the tests, stereotyped movements and rearing activity. Mouse sweating and salivation were reported only if present or not. The core temperature was determined using a probe (1 mm diameter) that was gently inserted after lubrication with liquid Vaseline into the rectum of the mouse (to about 2 cm) and left in position until the temperature stabilised (about 10 s). The probe was connected to a digital thermometer. Spontaneous aggressive response was measured based on the number of times a mouse bit a grey cloth put in front of its snout. During the test, each mouse was free to move within the cage. In the case of stimulated aggressiveness, each mouse was manually restrained and held in a supine position following which an object was brought near the mouth. For both spontaneous and stimulated aggressive behaviour tests, a grey cloth was placed in front of the nose of each mouse 10 consecutive times (score 0/10 not aggressive, score 10/10 very aggressive). Convulsions were defined as a loss of righting reflexes for at least 5 s, combined with the presence of body tremors and clonic or tonic limb movements. Deaths caused by 4-4’-DMAR injection occurring during the observation period (5 h) were also reported as frequency (%) and time of death (min). Experiments were conducted inside the LARP (Centralised Preclinical Research Laboratory, University of Ferrara, Ferrara, Italy) in a thermo-stated (temperature 20–22 °C, humidity about 45–55%) and light controlled (about 150 lux) room, in which there was a background noise of about 40 ± 4 dB. The experiments, conducted in blind by trained observers working together in pairs, were videotaped and eventually analysed off-line by a different trained operator. The experiments were performed between 8:30 a.m. and 2:00 p.m.\n(§3) Sweating and salivation were expressed as frequency (e.g., % of animals that developed symptoms); psychomotor agitation was expressed as frequency (% of animals) and duration (total time in mins). Core temperature values were expressed as the difference between control temperature (before injection) and temperature following drug administration (Δ°C). […]"}, "mice [2]": {"tested_on": "mice", "assay": "Lethality during the observation period", "assay_type": "in vivo", "conditions": "n=6 mice", "protocol": "as §1, §2, §3"}}, "note": "Where “and” joins values, the source holds several entries; their conditions need not be identical. Equal values may be shown once. Marks after values point to notes of the source that are not given here.", "data": [{"smiles": "Cc1ccc(C2OC(N)=NC2C)cc1", "note": "(stereo not drawn) [cis-4,4’-DMAR, 4-methyl-5-(4-methylphenyl)-4,5-dihydrooxazol-2-amine]", "values": [{"measurement": "Convulsion Duration of each episode", "setting": "mice [1]; 30 mg/kg i.p.", "result": "4.86 ± 1.26", "unit": "s"}, {"measurement": "Convulsion Episodes (n°)", "setting": "mice [1]; 30 mg/kg i.p.", "result": "3.5 ± 0.5", "unit": "n°"}, {"measurement": "Convulsion Frequency % (n° of mice)", "setting": "mice [1]; 30 mg/kg i.p.", "result": "50% (3)"}, {"measurement": "Convulsion Latency of first episode", "setting": "mice [1]; 30 mg/kg i.p.", "result": "10.5 ± 1.5", "unit": "s"}, {"measurement": "Convulsion Frequency % (n° of mice)", "setting": "mice [1]; 30 mg/kg i.p., listed as (±)cis-4,4′-DMAR", "result": 50, "unit": "%"}, {"measurement": "Convulsion Duration of each episode", "setting": "mice [1]; 60 mg/kg i.p.", "result": "16.14 ± 6.2", "unit": "s"}, {"measurement": "Convulsion Duration of each episode (sec)", "setting": "mice [1]; 60 mg/kg i.p.", "result": "16.14 ± 3.2 ^d sec"}, {"measurement": "Convulsion Episodes (n°)", "setting": "mice [1]; 60 mg/kg i.p.", "result": "2.0 ± 0.41 ^d n° and 2.0 ± 0.41 n°"}, {"measurement": "Convulsion Frequency % (n° of mice)", "setting": "mice [1]; 60 mg/kg i.p.", "result": "100% (6)"}, {"measurement": "Convulsion Latency of first episode", "setting": "mice [1]; 60 mg/kg i.p.", "result": "8.25 ± 1.1", "unit": "s"}, {"measurement": "Convulsion Frequency % (n° of mice)", "setting": "mice [1]; 60 mg/kg i.p., listed as (±)cis-4,4′-DMAR", "result": 100, "unit": "%"}, {"measurement": "Lethality Frequency % (n° of mice)", "setting": "mice [2]; 30 mg/kg i.p.", "result": "50% (3)"}, {"measurement": "Lethality Surviving mice % (n° of mice)", "setting": "mice [2]; 30 mg/kg i.p.", "result": "50% (3)"}, {"measurement": "Lethality Time of death", "setting": "mice [2]; 30 mg/kg i.p.", "result": "59.3 ± 2.3", "unit": "min"}, {"measurement": "Lethality Frequency % (n° of mice)", "setting": "mice [2]; 60 mg/kg i.p.", "result": "100% (6)"}, {"measurement": "Lethality Surviving mice % (n° of mice)", "setting": "mice [2]; 60 mg/kg i.p.", "result": "0% (0)"}, {"measurement": "Lethality Time of death", "setting": "mice [2]; 60 mg/kg i.p.", "result": "31.9 ± 5.6", "unit": "min"}, {"measurement": "Lethality Time of death (min)", "setting": "mice [2]; 60 mg/kg i.p.", "result": "31.9 ± 5.6 ^d min"}]}]}
